# Measurements: US7968548B2, “Melanocortin receptor-specific piperazine compounds with diamine groups” (Palatin Technologies, Inc., priority 2005, dated 2011)
# “And” between values parts separate entries of the source, which are not always exact repeats. Identical values can stand only once.
# Assays:
# hMC1-R = molecular target: T1, hMC1-R (Homo sapiens, UniProt Q01726); test: Competitive inhibition binding assay using [I125]-NDP-α-MSH, HEK-293 membranes, recombinant hMC1-R; details: human recombinant MC1-R; for inhibition at 1 µM: 1 μM compound
# T1 construct: expressed in transfected cells; host or cells: HEK-293
# Procedure: (§1) A competitive inhibition binding assay was performed using membrane homogenates prepared from HEK-293 cells that express recombinant hMC4-R, hMC3-R, or hMC5-R, and from B-16 mouse melanoma cells (containing endogenous MC1-R). In some instances, HEK-293 cells that express recombinant hMC1-R were employed. In the examples that follow, all MC3-R, MC4-R and MC5-R values are for human recombinant receptors. MC1-R values are for B-16 mouse melanoma cells, unless the heading is “hMC1-R”, in which case the value is for human recombinant MC1-R. Assays were performed in 96 well GF/B Millipore multiscreen filtration plates (MAFB NOB10) pre-coated with 0.5% bovine serum albumin (Fraction V). […] After incubation for 60 minutes at 37° C., the assay mixture was filtered and the membranes washed three times with ice-cold buffer. Filters were dried and counted in a gamma counter for bound radioactivity. […] Maximal specific binding (100%) was defined as the difference in radioactivity (cpm) bound to cell membranes in the absence and presence of 1 μM NDP-α-MSH. […] Each assay was conducted in triplicate and the actual mean values are described, with results less than 0% reported as 0%. Ki values for test compounds were determined using Graph-Pad Prism® curve-fitting software.
# MC3-R = molecular target: T2, MC3-R (Homo sapiens, UniProt P41968); test: Competitive inhibition binding assay using [I125]-NDP-α-MSH, HEK-293 membranes, recombinant hMC3-R; details: for inhibition at 1 µM: 1 μM compound
# T2 construct: expressed in transfected cells; host or cells: HEK-293
# Procedure: as §1
# MC5-R = molecular target: T3, MC5-R (Homo sapiens, UniProt P33032); test: Competitive inhibition binding assay using [I125]-NDP-α-MSH, HEK-293 membranes, recombinant hMC5-R; details: for inhibition at 1 µM: 1 μM compound
# T3 construct: expressed in transfected cells; host or cells: HEK-293
# Procedure: as §1
# MC4-R = MC4-R (Homo sapiens, UniProt P32245); test: Competitive inhibition binding assay using [I125]-NDP-α-MSH, HEK-293 membranes, recombinant hMC4-R; parameters: expressed in transfected cells; host or cells: HEK-293; details: for inhibition at 1 µM: 1 μM compound
# Procedure: as §1
# T2 sequence (P41968 whole entry): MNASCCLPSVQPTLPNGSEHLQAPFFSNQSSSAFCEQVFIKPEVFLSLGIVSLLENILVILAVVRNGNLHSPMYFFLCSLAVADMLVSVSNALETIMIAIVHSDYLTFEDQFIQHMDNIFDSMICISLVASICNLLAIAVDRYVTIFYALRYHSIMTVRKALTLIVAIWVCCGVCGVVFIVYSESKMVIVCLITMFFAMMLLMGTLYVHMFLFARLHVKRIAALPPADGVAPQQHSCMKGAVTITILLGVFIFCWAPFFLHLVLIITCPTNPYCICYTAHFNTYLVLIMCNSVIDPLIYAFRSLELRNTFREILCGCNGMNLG
# MC4-R, sequence (P32245 whole entry): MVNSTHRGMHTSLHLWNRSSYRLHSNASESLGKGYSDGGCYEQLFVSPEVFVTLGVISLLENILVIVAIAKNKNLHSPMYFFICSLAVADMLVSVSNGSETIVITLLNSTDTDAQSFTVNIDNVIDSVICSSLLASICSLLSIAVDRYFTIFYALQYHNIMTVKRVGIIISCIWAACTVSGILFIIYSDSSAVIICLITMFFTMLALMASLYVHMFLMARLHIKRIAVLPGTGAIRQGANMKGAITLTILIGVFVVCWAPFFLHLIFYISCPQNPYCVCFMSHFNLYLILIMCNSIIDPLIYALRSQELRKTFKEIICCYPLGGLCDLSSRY
# T3 sequence (P33032 whole entry): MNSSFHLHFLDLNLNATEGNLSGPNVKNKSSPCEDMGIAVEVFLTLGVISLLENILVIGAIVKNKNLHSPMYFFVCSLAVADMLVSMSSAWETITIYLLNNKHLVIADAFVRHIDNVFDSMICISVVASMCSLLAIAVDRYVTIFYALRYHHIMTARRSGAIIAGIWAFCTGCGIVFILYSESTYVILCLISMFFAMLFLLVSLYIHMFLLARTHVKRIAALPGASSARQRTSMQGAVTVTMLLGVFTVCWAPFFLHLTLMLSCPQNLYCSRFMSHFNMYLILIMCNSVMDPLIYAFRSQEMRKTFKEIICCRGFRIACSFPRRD
# T1 sequence (Q01726 whole entry): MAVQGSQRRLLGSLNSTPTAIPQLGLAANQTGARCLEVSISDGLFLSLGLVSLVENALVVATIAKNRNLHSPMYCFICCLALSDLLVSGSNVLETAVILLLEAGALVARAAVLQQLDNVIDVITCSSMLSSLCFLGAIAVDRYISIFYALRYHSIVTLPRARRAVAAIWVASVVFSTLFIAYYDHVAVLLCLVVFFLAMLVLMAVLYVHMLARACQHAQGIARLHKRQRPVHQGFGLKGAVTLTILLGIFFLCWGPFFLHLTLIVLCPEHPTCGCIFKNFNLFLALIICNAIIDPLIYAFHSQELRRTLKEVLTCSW
Compound,inhibition at 1 µM (hMC1-R),inhibition at 1 µM (MC3-R),inhibition at 1 µM (MC5-R),inhibition at 1 µM (MC4-R),Ki (MC4-R),Ki (hMC1-R),Ki (MC3-R),Ki (MC5-R)
"Cc1ccc(C[C@@H](N)CN2C[C@@H](C)N(C(=O)Cc3ccc4ccccc4c3)C[C@@H]2Cc2ccc(NCCN)cc2)c(C)c1 [Example 11, 1-{(2R,5S)-4-[(R)-2-Amino-3-(2,4-dimethyl-phenyl)-propyl]-5-[4-(2-amino-ethylamino)-benzyl]-2-methyl-piperazin-1-yl}-2-naphthalen-2-yl-ethanone]",3%,29%,36%,39%,,,,
"Cc1ccc(C[C@@H](N)C(=O)N2C[C@H](CCCNCCN)N(C(=O)[C@H](N)Cc3ccc(C)cc3C)C[C@H]2CC2CCCCC2)c(C)c1 [Example 14, (R)-2-Amino-1-{(2R,5S)-4-[(R)-2-amino-3-(2,4-dimethyl-phenyl)-propionyl]-5-[3-(2-amino-ethylamino)-propyl]-2-cyclohexylmethyl-piperazin-1-yl}-3-(2,4-dimethyl-phenyl)-propan-1-one]",35%,22%,43%,83%,81 nM,,,
"NCCNCCC[C@H]1CN(C(=O)[C@H](N)Cc2ccc(Cl)cc2Cl)[C@H](CC2CCCCC2)CN1C(=O)[C@H](N)Cc1ccc(Cl)cc1Cl [Example 15, (R)-2-Amino-1-{(2R,5S)-4-[(R)-2-amino-3-(2,4-dichloro-phenyl)-propionyl]-5-[3-(2-amino-ethylamino)-propyl]-2-cyclohexylmethyl-piperazin-1-yl}-3-(2,4-dichloro-phenyl)-propan-1-one]",27%,36%,31%,83%,74 nM,,,
"NCCNCCC[C@H]1CN(C(=O)[C@H](N)Cc2ccc3ccccc3c2)[C@H](CC2CCCCC2)CN1C(=O)[C@H](N)Cc1ccc2ccccc2c1 [Example 16, (R)-2-Amino-1-[(2R,5S)-5-[3-(2-amino-ethylamino)-propyl]-4-((R)-2-amino-3-naphthalen-2-yl-propionyl)-2-cyclohexylmethyl-piperazin-1-yl]-3-naphthalen-2-yl-propan-1-one]",,,,,99 nM and 81 nM,22 nM,36 nM,30 nM
"Cc1ccc(C[C@@H](N)C(=O)N2C[C@H](CCCNCCN)N(C(=O)[C@H](N)Cc3ccc(C)cc3C)C[C@H]2CC(C)C)c(C)c1 [Example 17, (R)-2-Amino-1-{(2S,5R)-4-[(R)-2-amino-3-(2,4-dimethyl-phenyl)-propionyl]-2-[3-(2-amino-ethylamino)-propyl]-5-isobutyl-piperazin-1-yl}-3-(2,4-dimethyl-phenyl)-propan-1-one]",22%,14%,38%,83%,60 nM,,,
"CC(C)C[C@@H]1CN(C(=O)[C@H](N)Cc2ccc(Cl)cc2Cl)[C@@H](CCCCNCCN)CN1C(=O)[C@H](N)Cc1ccc(Cl)cc1Cl [Example 19, (R)-2-Amino-1-{(2R,5S)-4-[(R)-2-amino-3-(2,4-dichloro-phenyl)-propionyl]-5-[4-(2-amino-ethylamino)-butyl]-2-isobutyl-piperazin-1-yl}-3-(2,4-dichloro-phenyl)-propan-1-one]",36%,59%,47%,97%,36 nM,754 nM,327 nM,296 nM
"Cc1ccc(C[C@@H](N)C(=O)N2C[C@H](CCCCNCCN)N(C(=O)[C@H](N)Cc3ccc(C)cc3C)C[C@H]2CC(C)C)c(C)c1 [Example 21, (R)-2-Amino-1-{(2R,5S)-4-[(R)-2-amino-3-(2,4-dimethyl-phenyl)-propionyl]-5[4-(2-amino-ethylamino)-butyl]-2-isobutyl-piperazin-1-yl}-3-(2,4-dimethyl-phenyl)-propan-1-one]",39%,55%,51%,95%,83 nM,567 nM,1050 nM,450 nM
"NCCNCCCC[C@H]1CN(C(=O)[C@H](N)Cc2ccc(Cl)cc2Cl)[C@H](CC2CCCCC2)CN1C(=O)[C@H](N)Cc1ccc(Cl)cc1Cl [Example 24, (R)-2-Amino-1-{(2R,5S)-4-[(R)-2-amino-3-(2,4-dichloro-phenyl)-propionyl]-5-[4-(2-amino-ethylamino)-butyl]-2-cyclohexylmethyl-piperazin-1-yl}-3-(2,4-dichloro-phenyl)-propan-1-one]",,,,,17 nM,270 nM,443 nM,139 nM

# Next, values leading:
inhibition at 1 µM (hMC1-R),inhibition at 1 µM (MC3-R),inhibition at 1 µM (MC5-R),inhibition at 1 µM (MC4-R),Ki (MC4-R),Ki (hMC1-R),Ki (MC3-R),Ki (MC5-R),Compound
67%,89%,93%,98%,41 nM,,,,"C[C@@H]1CN(C(=O)[C@H](N)Cc2ccc(Cl)cc2Cl)[C@@H](CCCNCCN)CN1C(=O)[C@H](N)Cc1ccc(Cl)cc1Cl [Example 25, (R)-2-Amino-1-{(2R,5S)-4-[(R)-2-amino-3-(2,4-dichloro-phenyl)-propionyl]-5-[3-(2-amino-ethylamino)-propyl]-2-methyl-piperazin-1-yl}-3-(2,4-dichloro-phenyl)-propan-1-one]"
53%,57%,76%,96%,64 nM,,,,"Cc1ccc(C[C@@H](N)C(=O)N2C[C@@H](C)N(C(=O)[C@H](N)Cc3ccc(C)cc3C)C[C@@H]2CCCNCCN)c(C)c1 [Example 26, (R)-2-Amino-1-{(2R,5S)-4-[(R)-2-amino-3-(2,4-dimethyl-phenyl)-propionyl]-5-[3-(2-amino-ethylamino)-propyl]-2-methyl-piperazin-1-yl}-3-(2,4-dimethyl-phenyl)-propan-1-one]"
62%,79%,73%,93%,42 nM,,,,"C[C@@H]1CN(C(=O)[C@H](N)Cc2ccc3ccccc3c2)[C@@H](CCCNCCN)CN1C(=O)[C@H](N)Cc1ccc2ccccc2c1 [Example 27, (R)-2-Amino-1-[(2R,5S)-5-[3-(2-amino-ethylamino)-propyl]-4-((R)-2-amino-3-naphthalen-2-yl-propionyl)-2-methyl-piperazin-1-yl]-3-naphthalen-2-yl-propan-1-one]"
77%,94%,84%,96%,19 nM,,,,"C[C@@H]1CN(C(=O)[C@H](N)Cc2ccc(Cl)c(Cl)c2)[C@@H](CCCNCCN)CN1C(=O)[C@H](N)Cc1ccc(Cl)c(Cl)c1 [Example 28, (R)-2-Amino-1-{(2R,5S)-4-[(R)-2-amino-3-(3,4-dichloro-phenyl)-propionyl]-5-[3-(2-amino-ethylamino)-propyl]-2-methyl-piperazin-1-yl}-3-(3,4-dichloro-phenyl)-propan-1-one]"
33%,65%,84%,91%,,,,,"CC(C)C[C@@H]1CN(C[C@H](N)Cc2ccc(Cl)cc2Cl)[C@@H](CCCNCCCN)CN1C(=O)Cc1ccc2ccccc2c1 [Example 29, 1-{(2R,5S)-4-[(R)-2-Amino-3-(2,4-dichloro-phenyl)-propyl]-5-[3-(3-amino-propylamino)-propyl]-2-isobutyl-piperazin-1-yl}-2-naphthalen-2-yl-ethanone]"
